Measurements: US20260184662A1, “COMPOSITE OF ACID AND SALT, AND PREPARATION METHOD THEREFOR” (NANJING NUTRABUILDING BIO-TECH CO., LTD., priority 2022, published 2026)
Read-outs that look alike come from different tables or passages of the source.

Experiments:
[1] = Stability of complexes at 30-80° C.; assay type: physicochemical
Description: For R-3-hydroxybutyric acid, potassium R-3-hydroxybutyrate, mixture of R-3-hydroxybutyric acid and potassium R-3-hydroxybutyrate, and R-3-hydroxybutyric acid·potassium R-3-hydroxybutyrate complex of Example 1, […]
For 3-hydroxybutyric acid, potassium 3-hydroxybutyrate, mixture of 3-hydroxybutyric acid and potassium 3-hydroxybutyrate, and 3-hydroxybutyric acid·potassium 3-hydroxybutyrate complex of Example 7, […]
For S-3-hydroxybutyric acid, potassium S-3-hydroxybutyrate, mixture of S-3-hydroxybutyric acid and potassium S-3-hydroxybutyrate, and S-3-hydroxybutyric acid·potassium S-3-hydroxybutyrate complex of Example 13, […]
For R-3-hydroxybutyric acid, calcium R-3-hydroxybutyrate, mixture of R-3-hydroxybutyric acid and calcium R-3-hydroxybutyrate, and R-3-hydroxybutyric acid·calcium R-3-hydroxybutyrate complex of Example 19, […]
For 3-hydroxybutyric acid, calcium 3-hydroxybutyrate, mixture of 3-hydroxybutyric acid and calcium 3-hydroxybutyrate, and 3-hydroxybutyric acid·calcium 3-hydroxybutyrate complex of Example 25, […]
For S-3-hydroxybutyric acid, calcium S-3-hydroxybutyrate, mixture of S-3-hydroxybutyric acid and calcium S-3-hydroxybutyrate, and S-3-hydroxybutyric acid·calcium S-3-hydroxybutyrate complex of Example 31, […]
For R-3-hydroxybutyric acid, magnesium R-3-hydroxybutyrate, mixture of R-3-hydroxybutyric acid and magnesium R-3-hydroxybutyrate, and R-3-hydroxybutyric acid·magnesium R-3-hydroxybutyrate complex of Example 37, […]
For 3-hydroxybutyric acid, magnesium 3-hydroxybutyrate, mixture of 3-hydroxybutyric acid and magnesium 3-hydroxybutyrate, and 3-hydroxybutyric acid·magnesium 3-hydroxybutyrate complex of Example 43, […]
For S-3-hydroxybutyric acid, magnesium S-3-hydroxybutyrate, mixture of S-3-hydroxybutyric acid and magnesium S-3-hydroxybutyrate, and S-3-hydroxybutyric acid·magnesium S-3-hydroxybutyrate complex of Example 49, […]
For R-3-hydroxypentanoic acid, sodium R-3-hydroxypentanoate, mixture of R-3-hydroxypentanoic acid and sodium R-3-hydroxypentanoate, and R-3-hydroxypentanoic acid·sodium R-3-hydroxypentanoate complex of Example 55, […]
For 3-hydroxypentanoic acid, sodium 3-hydroxypentanoate, mixture of 3-hydroxypentanoic acid and sodium 3-hydroxypentanoate, and 3-hydroxypentanoic acid·sodium 3-hydroxypentanoate complex of Example 61, […]
For S-3-hydroxypentanoic acid, sodium S-3-hydroxypentanoate, mixture of S-3-hydroxypentanoic acid and sodium S-3-hydroxypentanoate, and S-3-hydroxypentanoic acid·sodium S-3-hydroxypentanoate complex of Example 67, […]

[2] = Determination of moisture contents with KF moisture meter at different time points; assay type: physicochemical; details: temperature 23° C., humidity 92.5%
Description: (§1) For R-3-hydroxybutyric acid, potassium R-3-hydroxybutyrate, mixture of R-3-hydroxybutyric acid and potassium R-3-hydroxybutyrate, and R-3-hydroxybutyric acid·potassium R-3-hydroxybutyrate complex of Example 1, under a certain condition, KF moisture meter was used to determine the moisture contents at different time points.
as §1, with “3-hydroxybutyric” for “R-3-hydroxybutyric”, “3-hydroxybutyrate,” for “R-3-hydroxybutyrate,”, “3-hydroxybutyrate” for “R-3-hydroxybutyrate”, “7,” for “1,”
as §1, with “S-3-hydroxybutyric” for “R-3-hydroxybutyric”, “S-3-hydroxybutyrate,” for “R-3-hydroxybutyrate,”, “S-3-hydroxybutyrate” for “R-3-hydroxybutyrate”, “13,” for “1,”
as §1, with “calcium” for “potassium”, “acid·calcium” for “acid·potassium”, “19,” for “1,”
(§2) For 3-hydroxybutyric acid, calcium 3-hydroxybutyrate, mixture of 3-hydroxybutyric acid and calcium 3-hydroxybutyrate, and 3-hydroxybutyric acid·calcium 3-hydroxybutyrate complex of Example 25, under a certain condition, KF moisture meter was used to determine the moisture contents at different time points.
as §2, with “S-3-hydroxybutyric” for “3-hydroxybutyric”, “S-3-hydroxybutyrate,” for “3-hydroxybutyrate,”, “S-3-hydroxybutyrate” for “3-hydroxybutyrate”, “31,” for “25,”
as §1, with “magnesium” for “potassium”, “acid·magnesium” for “acid·potassium”, “37,” for “1,”
as §2, with “magnesium” for “calcium”, “acid·magnesium 3-hydroxy butyrate” for “acid·calcium 3-hydroxybutyrate”, “43,” for “25,”
For S-3-hydroxybutyric acid, magnesium S-3-hydroxybutyrate, mixture of S-3-hydroxybutyric acid and magnesium S-3-hydroxybutyrate, and S-3-hydroxybutyric acid·magnesium S-3-hydroxybutyrate complex of Example 49, under a certain condition, KF moisture meter was used to determine the moisture contents at different time points.
(§3) For R-3-hydroxypentanoic acid, sodium R-3-hydroxypentanoate, mixture of R-3-hydroxypentanoic acid and sodium R-3-hydroxypentanoate, and R-3-hydroxypentanoic acid·sodium R-3-hydroxypentanoate complex of Example 55, under a certain condition, KF moisture meter was used to determine the moisture contents at different time points.
as §3, with “3-hydroxypentanoic” for “R-3-hydroxypentanoic”, “3-hydroxypentanoate,” for “R-3-hydroxypentanoate,”, “3-hydroxypentanoate” for “R-3-hydroxypentanoate”, “61,” for “55,”
as §3, with “S-3-hydroxypentanoic” for “R-3-hydroxypentanoic”, “S-3-hydroxypentanoate,” for “R-3-hydroxypentanoate,”, “S-3-hydroxypentanoate” for “R-3-hydroxypentanoate”, “67,” for “55,”

| Stability [1] | Compound | moisture content (%) ([2]; 30 min) | moisture content (%) ([2]; 1 h) | moisture content (%) ([2]; 2 h) | moisture content (%) ([2]; 4 h) | moisture content (%) ([2]; 6 h) | moisture content (%) ([2]; 7 h) | moisture content (%) ([2]; 11 h) | moisture content (%) ([2]; 22 h) | Stability ([1]; 30° C.) | Stability ([1]; 40° C.) | Stability ([1]; 60° C.) | Stability ([1]; 70° C.) | Stability ([1]; 80° C.) |
| --- | --- | --- | --- | --- | --- | --- | --- | --- | --- | --- | --- | --- | --- | --- |
| unchanged | CC[C@H](O)CC(=O)[O-].[Na+] [Sodium S-3-hydroxypentanoate, sodium S-3-hydroxypentanoate] | 0.91 | 1.73 | 2.91 | 4.43 | 6.22 | 6.79 | 10.61 | 20.44 | – | – | – | – | – |
| – | calcium 3-hydroxybutyrate | 0.97 | 1.81 | 2.34 | 4.12 | 5.22 | 6.01 | 10.24 | 17.72 | unchanged | unchanged | melted | melted | melted |
| – | calcium R-3-hydroxybutyrate | 0.92 | 1.82 | 2.43 | 4.22 | 5.35 | 6.04 | 10.44 | 17.68 | unchanged | unchanged | melted | melted | melted |
| – | magnesium 3-hydroxybutyrate | 0.81 | 1.25 | 2.23 | 4.12 | 6.43 | 8.14 | 12.42 | 18.66 | unchanged | unchanged | Melted | melted | melted |
| – | magnesium R-3-hydroxybutyrate | 0.82 | 1.22 | 2.13 | 4.22 | 6.35 | 8.04 | 12.44 | 18.68 | unchanged | unchanged | melted | melted | melted |
